From paper PMC11859031, “Assessment of the In Vitro Biological Activities of Schiff Base-Synthesized Copper Oxide Nanoparticles as an Anti-Diabetic, Anti-Alzheimer, and Anti-Cancer Agent” (Pharmaceutics, 2025)
Values after ≈ are worked out from the molar mass of the structure shown.

Key:
[1] = molecular target: acetylcholinesterase (AChE) (Homo sapiens, UniProt P22303); assay: biochemical; conditions: mean ± SE, n = 3
Protocol: The absorbance was measured at 540 nm using a UV-Visible spectrophotometer. The IC50 of each tested sample was calculated by plotting a curve using a series of sample concentrations against the percent of α-amylase inhibition.
The inhibition percentage (%) of the α-glucosidase enzyme was determined using the […]
standard drug. Five μL of the α-glucosidase solution (10 units mL−1, 0.1moll−1 potassium phosphate buffer, pH 6.8) was pre -mixed with 10 μL of the sample solution at different concentrations (in 10% DMSO) i n 620 μL of 0.1 moll−1 potassium […]
phosphate buffer (pH 6.8). […]
phenyl glucopyranoside (pNPG, 10 mmoll−1) as a substrate was added to the mixture […]
minutes, followed by the addition of 650 μL of 1 moll−1 Na2CO3 solution to terminate the reaction. The amount of released product (p-nitro phenol) was measured at 410 […]
activity. The inhibition assay was performed in triplicate for all tests. The IC50 of each tested sample was calculated by plotting a curve using a series of sample concentrations against the percent of α-glucosidase inhibition.
3.4. Anti-Alzheimer's activity
In this study, we assessed the inhibition percentage of the acetylcholinesterase (AChE) enzyme using Ellman's method with donepezil as the standard drug. […] After incubation, 5 µL of AChE at a concentration of 0.3 U/mL was added to start the reaction, and the absorbance […]

[2] = ABTS radical scavenging; conditions: mean ± SE, n = 3
Protocol: The procedure for the 2,2'-azinobis-(3-ethylbenzothiazoline-6-sulfonic acid) (ABTS) […]
solution (7 mM) and potassium persulfate solution (2.4 mM). The working solution was prepared by mixing the two stock solutions in equal quantities and allowing them to react at room temperature in a dark place for 14 hours. The solution was then diluted by mixing 1 mL of ABTS solution with 60 mL of methanol to obtain an absorbance of 0.706 ± 0.01 units at 734 nm using a spectrophotometer. Fresh ABTS solution was prepared for each assay. The tested samples (at each concentration) were allowed to react with 1 mL of the ABTS solution, and the absorbance was taken at 734 nm after 7 minutes using a spectrophotometer. […]

[3] = molecular target: T1, COX-2 (Homo sapiens, UniProt P35354); assay: COX-2 inhibition assay (Cayman kit); type: biochemical; conditions: mean ± SE, n = 3
T1 construct: purchased Cayman 560131
T1 sequence (P35354 18-604): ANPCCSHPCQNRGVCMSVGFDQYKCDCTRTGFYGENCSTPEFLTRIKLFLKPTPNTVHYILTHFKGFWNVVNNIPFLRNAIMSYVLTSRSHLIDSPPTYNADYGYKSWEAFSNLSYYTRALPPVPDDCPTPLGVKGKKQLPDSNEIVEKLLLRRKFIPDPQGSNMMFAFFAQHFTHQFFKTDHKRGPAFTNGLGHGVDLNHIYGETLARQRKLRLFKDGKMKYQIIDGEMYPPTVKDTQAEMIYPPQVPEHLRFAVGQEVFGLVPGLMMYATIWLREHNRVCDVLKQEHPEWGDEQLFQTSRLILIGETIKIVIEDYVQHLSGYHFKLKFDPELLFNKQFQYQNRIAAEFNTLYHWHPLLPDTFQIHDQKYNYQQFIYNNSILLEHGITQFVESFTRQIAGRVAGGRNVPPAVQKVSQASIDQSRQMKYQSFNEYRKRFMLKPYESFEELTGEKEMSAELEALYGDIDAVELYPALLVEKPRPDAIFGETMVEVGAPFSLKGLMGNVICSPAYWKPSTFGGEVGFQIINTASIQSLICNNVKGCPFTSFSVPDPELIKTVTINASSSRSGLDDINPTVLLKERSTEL

[4] = system: Bcl-2 in HepG-2 cells; assay: Bcl-2 ELISA in treated HepG-2 cells; type: cell-based, human; conditions: HepG-2 cells treated at the IC50 value, mean ± SE, n = 3
Protocol: (§1) Following the treatment of HepG-2, Caco-2, A549, and BJ-1 cells with the SB-CuO-NPs at their respective IC50 values, as illustrated in Figure 9 and detailed in Table 5, an assessment of the activities of the caspase-3 and Bcl-2 enzymes was conducted in the treated cells. […] This mechanism ultimately triggers apoptosis. Additionally, the increased activity of caspase-3 results in a decrease in the expression of cyclin D1 and CDK-2 mRNA, thereby promoting the arrest of the G1 phase of the cell cycle. Othman et al. further noted that the biosynthesized M-NPs facilitate apoptosis by inhibiting the expression of the PI3K/AKT and Ras/Raf/ERK protein signaling pathways.
(§2) Invitrogen Corporation, following the manufacturer's instructions.

[5] = system: human lung cancer (A549) cell line; assay: MTT cytotoxicity, A549
[6] = system: caspase-3 in BJ-1 cells; assay: Caspase-3 ELISA in treated BJ-1 cells; type: cell-based, human; conditions: BJ-1 cells treated at the IC50 value, mean ± SE, n = 3
Protocol: as §1, §2

[7] = NO radical scavenging; conditions: mean ± SE, n = 3
Protocol: The in vitro biological applications of the SB and SB-CuO-NPs, including antioxidant, scavenging, anti-diabetic, anti-Alzheimer, anti-arthritic, anti-inflammatory, cytotoxic effects, and enzyme inhibition, were assessed using methods described in the literature (See Supplementary Materials).
During the current study, the free radical scavenging capacity of SB-CuO-NPs, SB, and ascorbic acid (positive control) was evaluated using the DPPH, ABTS, and NO radical methods. The scavenging activity is used to predict antioxidant efficacy, a mechanism in which antioxidants inhibit lipid oxidation. The lower IC50 value indicates a stronger ability of the SB-CuO-NPs to act as radical scavengers, whereas the higher IC50 value indicates a lower scavenging activity. […] The lower the IC50 value, the greater the antioxidant activity.

[8] = system: caspase-3 in A549 cells; assay: Caspase-3 ELISA in treated A549 cells; type: cell-based, human; conditions: A549 cells treated at the IC50 value, mean ± SE, n = 3
Protocol: as §1, §2

Sequence of acetylcholinesterase (AChE) (P22303 32-614, species assumed): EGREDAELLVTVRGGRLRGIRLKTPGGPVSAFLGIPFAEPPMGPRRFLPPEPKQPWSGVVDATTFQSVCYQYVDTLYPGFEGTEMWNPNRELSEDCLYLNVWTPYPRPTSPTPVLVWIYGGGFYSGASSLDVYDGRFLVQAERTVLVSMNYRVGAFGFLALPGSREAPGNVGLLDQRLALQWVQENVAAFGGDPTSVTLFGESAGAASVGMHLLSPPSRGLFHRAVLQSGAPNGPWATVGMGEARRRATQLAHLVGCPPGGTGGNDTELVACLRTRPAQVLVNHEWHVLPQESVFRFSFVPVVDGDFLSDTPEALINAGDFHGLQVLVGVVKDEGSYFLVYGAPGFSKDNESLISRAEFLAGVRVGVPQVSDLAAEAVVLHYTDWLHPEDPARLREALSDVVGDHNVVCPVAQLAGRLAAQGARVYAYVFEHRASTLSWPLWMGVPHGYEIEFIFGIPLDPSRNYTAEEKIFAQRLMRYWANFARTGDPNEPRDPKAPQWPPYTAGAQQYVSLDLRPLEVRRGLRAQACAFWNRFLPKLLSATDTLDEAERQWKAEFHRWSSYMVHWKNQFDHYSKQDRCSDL

What does the source list for `Cc1nn(-c2ccccc2)c(Cl)c1C=NN=C1C(=O)Nc2ccccc21` [SB]?
inhibition at 100 µg/mL ([1]; at 100 µg/mL, read-out: Acetylcholinesterase (AChE) Inhib. (%)): 32.64 ± 0.16%; IC50 [1]: 19.2 µM; Scavenging activity ABTS Inhib. (%) ([2]; at 100 µg/mL): 48.29 ± 0.18%; Scavenging activity ABTS IC50 [2]: 5.40 ± 0.06 µg/mL; inhibition at 100 µg/mL ([3]; at 100 µg/mL, read-out: COX-2 Inhib. (%)): 33.86 ± 0.18%; IC50 [3]: 19.7 µM; Bcl-2 [4]: 7.32 ± 0.10 ng/mL; viability at 31.13 µg/mL ([5]; A549): 86.2%; viability at 62.5 µg/mL ([5]; A549): 70.3%; viability at 125 µg/mL ([5]; A549): 44.8%; viability at 250 µg/mL ([5]; A549): 38.5%; viability at 500 µg/mL ([5]; A549): 18.8%; IC50 ([5]; A549, 48 h, read-out: Median Inhibitory Concentration (IC50) A549): 110 ± 2.49 µg/mL (≈ 303 µM); Caspase-3 [6]: 109.07 ± 0.18 pg/mL; Scavenging activity NO Inhib. (%) ([7]; at 100 µg/mL): 36.79 ± 0.18%; Scavenging activity NO IC50 [7]: 7.69 ± 0.04 µg/mL; Caspase-3 [8]: 134.94 ± 0.18 pg/mL
